Columns and labels:
[1] = test system: Echinochloa crus-galli; test: Herbicidal activity against Echinochloa crus-galli (barnyard grass) at 5000 g/ha after 2 weeks; assay type: functional
[2] = test system: Abutilon theophrasti; test: Herbicidal activity against Abutilon theophrasti (velvetleaf) at 5000 g/ha after 2 weeks; assay type: functional
[3] = test system: Xanthium strumarium; test: Herbicidal activity against Xanthium strumarium (cocklebur) 5000 g/ha after 2 weeks; assay type: functional
[4] = test system: Triticum aestivum; test: Herbicidal activity against Triticum aestivum (wheat) at 5000 g/ha after 2 weeks; assay type: ADME, organism-based; conditions: in vivo, 336 h
[5] = test system: Galium spurium; test: Herbicidal activity against Galium spurium var. echinospermon (Wally.) Hayek at 5000 g/ha after 2 weeks; assay type: functional
[6] = test system: Glycine max; test: Herbicidal activity against Glycine max (soybean) at 5000 g/ha after 2 weeks; assay type: organism-based; conditions: in vivo, 336 h
[7] = test system: Veronica persica; test: Herbicidal activity against Veronica persica at 5000 g/ha after 2 weeks; assay type: functional
[8] = test system: Avena fatua; test: Herbicidal activity against Avena fatua at 5000 g/ha after 2 weeks; assay type: functional
[9] = test system: Triticum aestivum; test: Herbicidal activity against Triticum aestivum (wheat) at 500 g/ha after 2 weeks; assay type: ADME, organism-based; conditions: in vivo, 336 h
[10] = test system: Galium spurium; test: Herbicidal activity against Galium spurium var. echinospermon (Wally.) Hayek at 500 g/ha after 2 weeks; assay type: functional
[11] = test system: Galium spurium; test: Herbicidal activity against Galium spurium var. echinospermon (Wally.) Hayek at 250 g/ha after 2 weeks; assay type: functional
[12] = test system: Xanthium strumarium; test: Herbicidal activity against Xanthium strumarium (cocklebur) 250 g/ha after 2 weeks; assay type: functional
[13] = test system: Echinochloa crus-galli; test: Herbicidal activity against Echinochloa crus-galli (barnyard grass) at 500 g/ha after 2 weeks; assay type: functional
[14] = test system: Veronica persica; test: Herbicidal activity against Veronica persica at 500 g/ha after 2 weeks; assay type: functional
[15] = test system: Triticum aestivum; test: Herbicidal activity against Triticum aestivum (wheat) at 250 g/ha after 2 weeks; assay type: organism-based; conditions: in vivo, 336 h
[16] = test system: Abutilon theophrasti; test: Herbicidal activity against Abutilon theophrasti (velvetleaf) at 500 g/ha after 2 weeks; assay type: functional
[17] = test system: Glycine max; test: Herbicidal activity against Glycine max (soybean) at 250 g/ha after 2 weeks; assay type: organism-based; conditions: in vivo, 336 h
[18] = test system: Abutilon theophrasti; test: Herbicidal activity against Abutilon theophrasti (velvetleaf) at 250 g/ha after 2 weeks; assay type: functional
[19] = test system: Xanthium strumarium; test: Herbicidal activity against Xanthium strumarium (cocklebur) 500 g/ha after 2 weeks; assay type: functional
[20] = test system: Echinochloa crus-galli; test: Herbicidal activity against Echinochloa crus-galli (barnyard grass) at 250 g/ha after 2 weeks; assay type: functional
[21] = test system: Veronica persica; test: Herbicidal activity against Veronica persica at 250 g/ha after 2 weeks; assay type: functional
[22] = test system: Avena fatua; test: Herbicidal activity against Avena fatua at 250 g/ha after 2 weeks; assay type: functional
[23] = test system: Glycine max; test: Herbicidal activity against Glycine max (soybean) at 500 g/ha after 2 weeks; assay type: organism-based; conditions: in vivo, 336 h
[24] = test system: Avena fatua; test: Herbicidal activity against Avena fatua at 500 g/ha after 2 weeks; assay type: functional

| Structure (SMILES) | Activity [1] [%] | Activity [2] [%] | Activity [3] [%] | Activity [4] [%] | Activity [5] [%] | Activity [6] [%] | Activity [7] [%] | Activity [8] [%] | Activity [9] [%] | Activity [10] [%] | Activity [11] [%] | Activity [12] [%] | Activity [13] [%] | Activity [14] [%] | Activity [15] [%] | Activity [16] [%] | Activity [17] [%] | Activity [18] [%] | Activity [20] [%] | Activity [21] [%] | other results |
| --- | --- | --- | --- | --- | --- | --- | --- | --- | --- | --- | --- | --- | --- | --- | --- | --- | --- | --- | --- | --- | --- |
| CNC(=O)c1nc(C)c(C)nc1C(=O)Nc1cc(Cl)ccc1C | 10 | <10 | <10 | 10 | 10 | < 10 | 95 | <10 | – | – | – | – | – | – | – | – | – | – | – | – | – |
| Cc1ccc(Cl)cc1NC(=O)c1nc(C)c(C)nc1C(=O)NC(C)(C)C | 70 | 95 | 95 | 10 | 30 | < 10 | 95 | <10 | < 10 | <10 | <10 | <10 | <10 | 70 | < 10 | <10 | < 10 | <10 | <10 | 10 | Activity [19]: <10%; Activity [22]: <10%; Activity [23]: < 10%; Activity [24]: <10% |
| CCCCCNC(=O)c1nc(C)c(C)nc1C(=O)Nc1cc(Cl)ccc1C | <10 | <10 | <10 | < 10 | <10 | < 10 | <10 | <10 | – | – | – | – | – | – | – | – | – | – | – | – | – |
| Cc1ccc(Cl)cc1NC(=O)c1nc(C)c(C)nc1C(=O)NCCC(C)C | 70 | 95 | 30 | < 10 | 10 | < 10 | 95 | 30 | – | – | – | – | – | – | – | – | – | – | – | – | – |
| CNC(=O)c1nc(C)c(C)nc1C(=O)Nc1cc(F)ccc1C | <10 | <10 | <10 | < 10 | <10 | < 10 | 50 | <10 | – | – | – | – | – | – | – | – | – | – | – | – | – |
| CCNC(=O)c1nc(C)c(C)nc1C(=O)Nc1cc(F)ccc1C | <10 | 50 | 70 | < 10 | <10 | < 10 | 95 | 10 | – | – | – | – | – | – | – | – | – | – | – | – | – |
| CCCNC(=O)c1nc(C)c(C)nc1C(=O)Nc1cc(F)ccc1C | 30 | 95 | 95 | 30 | 95 | < 10 | 95 | 10 | < 10 | <10 | <10 | 30 | 10 | 95 | < 10 | 30 | < 10 | 30 | <10 | 95 | Activity [19]: 95%; Activity [22]: <10%; Activity [23]: < 10%; Activity [24]: <10% |
| Cc1ccc(F)cc1NC(=O)c1nc(C)c(C)nc1C(=O)NC(C)C | 50 | 50 | 70 | 30 | 70 | < 10 | 95 | 30 | 10 | <10 | <10 | 10 | 30 | 95 | < 10 | 70 | < 10 | 50 | <10 | 70 | Activity [19]: 70%; Activity [22]: <10%; Activity [23]: < 10%; Activity [24]: 30% |
| CCCCNC(=O)c1nc(C)c(C)nc1C(=O)Nc1cc(F)ccc1C | 70 | 95 | 50 | 30 | 30 | < 10 | 95 | <10 | 30 | <10 | <10 | <10 | 10 | 95 | < 10 | <10 | < 10 | <10 | <10 | 95 | Activity [19]: <10%; Activity [22]: <10%; Activity [23]: < 10%; Activity [24]: <10% |
| Cc1ccc(F)cc1NC(=O)c1nc(C)c(C)nc1C(=O)NCC(C)C | 30 | 95 | 95 | 30 | 30 | < 10 | 95 | 50 | 10 | <10 | <10 | <10 | <10 | 95 | 10 | 70 | < 10 | 30 | <10 | 95 | Activity [19]: 95%; Activity [22]: <10%; Activity [23]: < 10%; Activity [24]: 10% |
| CC[C@@H](C)NC(=O)c1nc(C)c(C)nc1C(=O)Nc1cc(F)ccc1C | 30 | 95 | 70 | 50 | 70 | < 10 | 95 | 30 | < 10 | 30 | <10 | <10 | 30 | 95 | < 10 | 95 | < 10 | 30 | <10 | 30 | Activity [19]: 50%; Activity [22]: <10%; Activity [23]: < 10%; Activity [24]: <10% |
| CC[C@H](C)NC(=O)c1nc(C)c(C)nc1C(=O)Nc1cc(F)ccc1C | 70 | 70 | 95 | 30 | 95 | < 10 | 95 | 50 | < 10 | <10 | <10 | <10 | <10 | 70 | < 10 | <10 | < 10 | <10 | <10 | 70 | Activity [19]: <10%; Activity [22]: <10%; Activity [23]: < 10%; Activity [24]: <10% |
| Cc1ccc(F)cc1NC(=O)c1nc(C)c(C)nc1C(=O)NC(C)(C)C | 70 | 95 | 95 | 30 | 10 | < 10 | 95 | 95 | < 10 | <10 | <10 | <10 | <10 | 70 | < 10 | <10 | < 10 | <10 | <10 | <10 | Activity [19]: <10%; Activity [22]: <10%; Activity [23]: < 10%; Activity [24]: <10% |
| CCCCCNC(=O)c1nc(C)c(C)nc1C(=O)Nc1cc(F)ccc1C | 30 | 30 | <10 | < 10 | <10 | < 10 | 30 | <10 | – | – | – | – | – | – | – | – | – | – | – | – | – |
| Cc1ccc(F)cc1NC(=O)c1nc(C)c(C)nc1C(=O)NCCC(C)C | 30 | 95 | <10 | 10 | <10 | < 10 | 95 | 30 | – | – | – | – | – | – | – | – | – | – | – | – | – |
| CCC(C)NC(=O)c1nc(C)c(C)nc1C(=O)Nc1cc(F)ccc1C (racemic) | 30 | 95 | 95 | 50 | 95 | < 10 | 95 | 30 | 30 | <10 | <10 | <10 | <10 | 95 | < 10 | 95 | < 10 | 95 | <10 | 95 | Activity [22]: <10%; Activity [23]: < 10%; Activity [24]: <10% |

Source: ChEMBL document CHEMBL3046846, “Synthesis of N-Alkyl-2, 3-dimethyl-5-[N-(5-halo-2-methylphenyl)carbamoyl]-6-pyrazinecarboxamides and Their Herbicidal Activity” (J Pestic Sci, 1997)
